Laboratory results from PubChem BioAssay (NCI).
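Step 1: Grow cells in 96-well plates. Step 2: Expose to compound for 48 hours at 5 concentrations. Step 3: Interpolate endpoints linearly; if unreached, use highest concentration. GI50 marks 50% less growth. TGI denotes the concentration required for complete inhibition of growth.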

How the values were obtained:
Assay in all cases: NCI tumour cell line growth inhibition, 48 h
CAKI-1 renal = tested on: CAKI-1 renal
ACHN renal = tested on: ACHN renal
OVCAR-5 ovarian = tested on: OVCAR-5 ovarian
MCF7 breast = tested on: MCF7 breast
A498 renal = tested on: A498 renal
OVCAR-3 ovarian = tested on: OVCAR-3 ovarian
PC-3 prostate = tested on: PC-3 prostate
OVCAR-8 ovarian = tested on: OVCAR-8 ovarian
NCI-H522 lung = tested on: NCI-H522 lung
SF-295 CNS = tested on: SF-295 CNS
MOLT-4 leukemia = tested on: MOLT-4 leukemia
IGROV1 ovarian = tested on: IGROV1 ovarian
M14 melanoma = tested on: M14 melanoma
HOP-92 NSCLC = tested on: HOP-92 NSCLC
EKVX NSCLC = tested on: EKVX NSCLC
HT29 colon = tested on: HT29 colon
NCI-H23 lung = tested on: NCI-H23 lung
NCI-H226 lung = tested on: NCI-H226 lung
A549 NSCLC = tested on: A549 NSCLC
DU-145 prostate = tested on: DU-145 prostate
MDA-MB-435 = tested on: MDA-MB-435
MDA-MB-231 breast = tested on: MDA-MB-231 breast
SK-MEL-28 melanoma = tested on: SK-MEL-28 melanoma
T-47D breast = tested on: T-47D breast
BT-549 breast = tested on: BT-549 breast
RXF 393 renal = tested on: RXF 393 renal
HCC-2998 colon = tested on: HCC-2998 colon
SR leukemia = tested on: SR leukemia
UACC-62 melanoma = tested on: UACC-62 melanoma
UACC-257 melanoma = tested on: UACC-257 melanoma
SK-MEL-2 melanoma = tested on: SK-MEL-2 melanoma
UO-31 renal = tested on: UO-31 renal
NCI-H460 lung = tested on: NCI-H460 lung
CCRF-CEM leukemia = tested on: CCRF-CEM leukemia
RPMI-8226 leukemia = tested on: RPMI-8226 leukemia
SK-MEL-5 melanoma = tested on: SK-MEL-5 melanoma
HOP-62 NSCLC = tested on: HOP-62 NSCLC
SN12C renal = tested on: SN12C renal
786-0 renal = tested on: 786-0 renal
SK-OV-3 ovarian = tested on: SK-OV-3 ovarian
SW-620 colon = tested on: SW-620 colon
U251 CNS = tested on: U251 CNS
HS 578T breast = tested on: HS 578T breast
KM12 colon = tested on: KM12 colon
NCI/ADR-RES ovarian = tested on: NCI/ADR-RES ovarian
K-562 leukemia = tested on: K-562 leukemia
HCT-116 colon = tested on: HCT-116 colon
OVCAR-4 ovarian = tested on: OVCAR-4 ovarian
HL-60(TB) leukemia = tested on: HL-60(TB) leukemia
SNB-75 CNS = tested on: SNB-75 CNS
SF-539 CNS = tested on: SF-539 CNS
TK-10 renal = tested on: TK-10 renal
HCT-15 colon = tested on: HCT-15 colon
LOX IMVI melanoma = tested on: LOX IMVI melanoma
SF-268 CNS = tested on: SF-268 CNS
MALME-3M melanoma = tested on: MALME-3M melanoma
COLO 205 colon = tested on: COLO 205 colon
SNB-19 CNS = tested on: SNB-19 CNS

CCCCCCCCc1ccc(OCCOCC[N+](C)(C)CC)cc1 (tested in a mixture with another compound)
GI50 (CAKI-1 renal): 54.8 µM
TGI (CAKI-1 renal): > 100 µM
GI50 (ACHN renal): 15.6 µM
TGI (ACHN renal): 30.4 µM
GI50 (OVCAR-5 ovarian): 7.5 µM
TGI (OVCAR-5 ovarian): 20.9 µM
GI50 (MCF7 breast): 3.05 µM
TGI (MCF7 breast): 12.6 µM
GI50 (A498 renal): 9.16 µM
TGI (A498 renal): 22 µM
GI50 (OVCAR-3 ovarian): 2.79 µM
TGI (OVCAR-3 ovarian): 12.5 µM
GI50 (PC-3 prostate): 3.12 µM
TGI (PC-3 prostate): 12.6 µM
GI50 (OVCAR-8 ovarian): 3.81 µM
TGI (OVCAR-8 ovarian): 15.4 µM
GI50 (NCI-H522 lung): 2.18 µM
TGI (NCI-H522 lung): 9.84 µM
GI50 (SF-295 CNS): 13 µM
TGI (SF-295 CNS): 27 µM
GI50 (MOLT-4 leukemia): 4.39 µM
TGI (MOLT-4 leukemia): 18.2 µM
GI50 (IGROV1 ovarian): 3.74 µM
TGI (IGROV1 ovarian): 14.7 µM
GI50 (M14 melanoma): 4.07 µM
TGI (M14 melanoma): 17.2 µM
GI50 (HOP-92 NSCLC): 1.17 µM
TGI (HOP-92 NSCLC): 4.51 µM
GI50 (EKVX NSCLC): 4.6 µM
TGI (EKVX NSCLC): 18.7 µM
GI50 (HT29 colon): 3.1 µM
TGI (HT29 colon): 13.5 µM
GI50 (NCI-H23 lung): 3.42 µM
TGI (NCI-H23 lung): 15.8 µM
GI50 (NCI-H226 lung): 4.31 µM
TGI (NCI-H226 lung): 19.2 µM
GI50 (A549 NSCLC): 9.99 µM
TGI (A549 NSCLC): 23.1 µM
GI50 (DU-145 prostate): 8.09 µM
TGI (DU-145 prostate): 22.8 µM
GI50 (MDA-MB-435): 2.91 µM
TGI (MDA-MB-435): 11.2 µM
GI50 (MDA-MB-231 breast): 2.75 µM
TGI (MDA-MB-231 breast): 11.3 µM
GI50 (SK-MEL-28 melanoma): 3.25 µM
TGI (SK-MEL-28 melanoma): 15.4 µM
GI50 (T-47D breast): 3.14 µM
TGI (T-47D breast): 13.7 µM
GI50 (BT-549 breast): 3.03 µM
TGI (BT-549 breast): 9.8 µM
GI50 (RXF 393 renal): 10.5 µM
TGI (RXF 393 renal): 23.4 µM
GI50 (HCC-2998 colon): 3.74 µM
TGI (HCC-2998 colon): 13.6 µM
GI50 (SR leukemia): 3 µM
TGI (SR leukemia): 14.3 µM
GI50 (UACC-62 melanoma): 1.88 µM
TGI (UACC-62 melanoma): 5.48 µM
GI50 (UACC-257 melanoma): 2.34 µM
TGI (UACC-257 melanoma): 6.8 µM
GI50 (SK-MEL-2 melanoma): 2.56 µM
TGI (SK-MEL-2 melanoma): 8.53 µM
GI50 (UO-31 renal): 17.5 µM
TGI (UO-31 renal): 45.4 µM
GI50 (NCI-H460 lung): 3.94 µM
TGI (NCI-H460 lung): 14.5 µM
GI50 (CCRF-CEM leukemia): 3.2 µM
TGI (CCRF-CEM leukemia): 15.9 µM
GI50 (RPMI-8226 leukemia): 2.03 µM
TGI (RPMI-8226 leukemia): 6.82 µM
GI50 (SK-MEL-5 melanoma): 1.45 µM
TGI (SK-MEL-5 melanoma): 3.06 µM
GI50 (HOP-62 NSCLC): 5 µM
TGI (HOP-62 NSCLC): 17.2 µM
GI50 (SN12C renal): 3.07 µM
TGI (SN12C renal): 11.9 µM
GI50 (786-0 renal): 14.2 µM
TGI (786-0 renal): 28.8 µM
GI50 (SK-OV-3 ovarian): 7.74 µM
TGI (SK-OV-3 ovarian): 20.2 µM
GI50 (SW-620 colon): 3.97 µM
TGI (SW-620 colon): 16.1 µM
GI50 (U251 CNS): 1.8 µM
TGI (U251 CNS): 12.3 µM
GI50 (HS 578T breast): 3.2 µM
TGI (HS 578T breast): 16.6 µM
GI50 (KM12 colon): 3.72 µM
TGI (KM12 colon): 13.8 µM
GI50 (NCI/ADR-RES ovarian): > 100 µM
TGI (NCI/ADR-RES ovarian): > 100 µM
GI50 (K-562 leukemia): 3.06 µM
TGI (K-562 leukemia): 15.4 µM
GI50 (HCT-116 colon): 3.84 µM
TGI (HCT-116 colon): 14.8 µM
GI50 (OVCAR-4 ovarian): 1.66 µM
TGI (OVCAR-4 ovarian): 10.8 µM
GI50 (HL-60(TB) leukemia): 1.47 µM
TGI (HL-60(TB) leukemia): 4.85 µM
GI50 (SNB-75 CNS): 2.12 µM
TGI (SNB-75 CNS): 9 µM
GI50 (SF-539 CNS): 3.97 µM
TGI (SF-539 CNS): 15 µM
GI50 (TK-10 renal): 14.8 µM
TGI (TK-10 renal): 29.1 µM
GI50 (HCT-15 colon): 24.8 µM
TGI (HCT-15 colon): > 100 µM
GI50 (LOX IMVI melanoma): 2.7 µM
TGI (LOX IMVI melanoma): 13.7 µM
GI50 (SF-268 CNS): 4.22 µM
TGI (SF-268 CNS): 16.9 µM
GI50 (MALME-3M melanoma): 1.93 µM
TGI (MALME-3M melanoma): 6.44 µM
GI50 (COLO 205 colon): 1.59 µM
TGI (COLO 205 colon): 3.21 µM

CC(=O)C(C)CCOC1(C)OCCC1C (configuration not stated)
TGI (CAKI-1 renal): > 100 µM
TGI (ACHN renal): > 100 µM
TGI (OVCAR-5 ovarian): > 100 µM
TGI (MCF7 breast): > 100 µM
TGI (A498 renal): > 100 µM
TGI (OVCAR-3 ovarian): > 100 µM
TGI (SNB-19 CNS): > 100 µM
TGI (PC-3 prostate): > 100 µM
TGI (OVCAR-8 ovarian): > 100 µM
TGI (NCI-H522 lung): > 100 µM
TGI (SF-295 CNS): > 100 µM
TGI (MOLT-4 leukemia): > 100 µM
TGI (IGROV1 ovarian): > 100 µM
TGI (M14 melanoma): > 100 µM
TGI (HOP-92 NSCLC): > 100 µM
TGI (EKVX NSCLC): > 100 µM
TGI (HT29 colon): > 100 µM
TGI (NCI-H23 lung): > 100 µM
TGI (NCI-H226 lung): > 100 µM
TGI (A549 NSCLC): > 100 µM
TGI (DU-145 prostate): > 100 µM
TGI (MDA-MB-435): > 100 µM
TGI (MDA-MB-231 breast): > 100 µM
TGI (SK-MEL-28 melanoma): > 100 µM
TGI (T-47D breast): > 100 µM
TGI (BT-549 breast): > 100 µM
TGI (RXF 393 renal): > 100 µM
TGI (HCC-2998 colon): > 100 µM
TGI (SR leukemia): > 100 µM
TGI (UACC-62 melanoma): > 100 µM
TGI (UACC-257 melanoma): > 100 µM
TGI (SK-MEL-2 melanoma): > 100 µM
TGI (UO-31 renal): > 100 µM
TGI (NCI-H460 lung): > 100 µM
TGI (CCRF-CEM leukemia): > 100 µM
TGI (RPMI-8226 leukemia): > 100 µM
TGI (SK-MEL-5 melanoma): > 100 µM
TGI (HOP-62 NSCLC): > 100 µM
TGI (SN12C renal): > 100 µM
TGI (786-0 renal): > 100 µM
TGI (SK-OV-3 ovarian): > 100 µM
TGI (SW-620 colon): > 100 µM
TGI (U251 CNS): > 100 µM
TGI (HS 578T breast): > 100 µM
TGI (KM12 colon): > 100 µM
TGI (NCI/ADR-RES ovarian): > 100 µM
TGI (K-562 leukemia): > 100 µM
TGI (HCT-116 colon): > 100 µM
TGI (OVCAR-4 ovarian): > 100 µM
TGI (HL-60(TB) leukemia): > 100 µM
TGI (SNB-75 CNS): > 100 µM
TGI (SF-539 CNS): > 100 µM
TGI (TK-10 renal): > 100 µM
TGI (HCT-15 colon): > 100 µM
TGI (LOX IMVI melanoma): > 100 µM
TGI (SF-268 CNS): > 100 µM
TGI (MALME-3M melanoma): > 100 µM
TGI (COLO 205 colon): > 100 µM
